# Experimental data as given in patent US11840523B2, “IRE1α inhibitors and uses thereof” (The Regents of the University of California, priority 2020, dated 2023).
# Tests used:
# IRE1α [1] = biological target: T1, IRE1α (Homo sapiens (Human), UniProt O75460); assay: In vitro kinase activity assay (IC50 IRE1α kinase inhibition); assay type: biochemical
# Method: A construct containing the cytosolic kinase and RNase domains of human IRE1α (residues 547-977, IRE1α*) was expressed in SF9 insect cells by using the Bac-to-Bac baculovirus expression system (Invitrogen) with a His6 tag at the N-terminus and purified with a nickel-nitriloacetic acid (Qiagen) column. To generate dP-IRE1α*, we removed basal phosphorylation sites by incubating IRE1α* with λ-PPase (New England Biolabs) at a molar ratio of 5:1 (IRE1α*: X-PPase) in 50 mM HEPES pH 7.5, 100 mM NaCl, 1 mM MnCl2, 2 mM dithiothreitol (DTT) and 0.01% Brij 35 detergent (v/v) overnight at 4° C. Dephosphorylation was verified through western blotting using a universal phospho-protein detection agent (biotin-pIMAGO (Tymora Analytical Operations, Cat. No.: FL800) and imaged using a streptavidin-linked fluorophore.
# In Vitro Kinase Activity Assay
# Inhibitors (initial concentration of 10 or 60 μM, three-fold serial dilutions) were incubated with IRE1α* in cleavage buffer (20 mM HEPES, 0.05% Triton X-100 (v/v), 50 mM KCl, 1 mM MgCl2, 1 mM DTT, pH 7.5) for 30 min, followed by incubation with 10 μCi [γ^32P] ATP(3,000 Ci mmol^−1, PerkinElmer) at 23° C. for 3 hours. Samples were then spotted onto glass fiber paper (Easytab-C Glass Fiber Filter Paper, Perkin Elmer) and washed in twice with 0.5% phosphoric acid and autoradiographed using a GE Typhoon FLA 9000 Imager. Blots were quantitated using ImageQuant software. The percent inhibition was quantified by setting the background (no kinase well) as 0 and standardizing to IRE1α* without compound treatment (IRE1α*+DMSO). Dose-response curves were fit using “one-site fit logIC50” parameter using GraphPad Prism analysis software.
# Compound Characterization (IC50 IRE1α Kinase Inhibition)
# IRE1α [2] = biological target: T1, IRE1α; assay: In vitro Kdimer assay (XBP1-mini substrate cleavage) with IRE1α*; assay type: biochemical; conditions: ligand-bound IRE1α*; FIG. 1E, FIG. 5
# Description: (§1) In order to better understand how to achieve an optimal intermediate RNase activation state through engagement of IRE1α's kinase domain, we first established a quantitative in vitro framework for characterizing how ATP-binding site occupancy influences RNase activity. […] This dimeric state-commonly referred to as the “back-to-back” dimer—is characterized by an extensive interface between the kinase and RNase domains of each IRE1α protomer; this dimeric state can be promoted through mass action as IRE1α concentration is raised. […] Furthermore, ligands that occupy the ATP-binding site of the kinase domain can also stimulate IRE1α's RNase activity by promoting dimer formation. We measured the ability of a purified, recombinant kinase/RNase domain construct of IRE1α-called IRE1α* to cleave a FRET-quenched XBP1 RNA mini-substrate as a function of IRE1α* concentration, in order to provide a quantitative metric of IRE1α's dimer affinity (Kdimer) (FIG. 1). […]
# IRE1α* or dPIRE1α* was titrated from either 2 μM or 4 μM in two-fold serial dilutions in assay buffer (20 mM Tris, 50 mM sodium chloride, 1 mM MgCl2, 2 mM DTT, 0.05% Triton X-100 (v/v), pH 7.5) and incubated with 50 μM inhibitor for 30 minutes at room temperature. […] Fluorescence was detected on a Perkin Elmer Envision Microplate Reader at excitation and emission wavelengths of 650 nm and 665 nm. […]
# dpIRE1α* = dpIRE1α* (Homo sapiens (Human), UniProt O75460); assay: In vitro Kdimer assay (XBP1-mini substrate cleavage) with dpIRE1α*; assay type: biochemical; conditions: FIG. 4; for fold lowering of Kdimer of dpIRE1α* when kinase domain complexed to ligand: versus apo dpIRE1α*, FIG. 1D
# Chain of dpIRE1α* (O75460 547-977): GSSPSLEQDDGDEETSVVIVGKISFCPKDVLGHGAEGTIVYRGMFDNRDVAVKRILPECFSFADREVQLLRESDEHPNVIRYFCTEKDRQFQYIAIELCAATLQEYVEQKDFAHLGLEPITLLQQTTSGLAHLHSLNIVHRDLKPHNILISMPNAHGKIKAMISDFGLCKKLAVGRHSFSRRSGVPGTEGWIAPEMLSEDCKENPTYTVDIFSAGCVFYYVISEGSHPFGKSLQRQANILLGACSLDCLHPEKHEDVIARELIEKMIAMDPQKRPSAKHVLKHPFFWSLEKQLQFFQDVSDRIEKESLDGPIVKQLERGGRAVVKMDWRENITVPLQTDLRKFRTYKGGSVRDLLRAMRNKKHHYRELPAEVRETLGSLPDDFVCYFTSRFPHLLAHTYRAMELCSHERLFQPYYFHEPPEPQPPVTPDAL
# Description: as §1
# IRE1α* or dPIRE1α* was titrated from either 2 μM or 4 μM in two-fold serial dilutions in assay buffer (20 mM Tris, 50 mM sodium chloride, 1 mM MgCl2, 2 mM DTT, 0.05% Triton X-100 (v/v), pH 7.5) and incubated with 50 μM inhibitor for 30 minutes at room temperature. […] Fluorescence was detected on a Perkin Elmer Envision Microplate Reader at excitation and emission wavelengths of 650 nm and 665 nm. Reaction process was monitored real time in 10-second intervals for at least 30 minutes. Initial rates of XBP1-cleavage were determined for each respective IRE1α* of dpIRE1α* concentration. Specific activity was then determined by dividing rate (RFU/s) by the respective IRE1α* of dpIRE1α* used (RFU/s*[IRE1α]). Kdimer values were determined by fitting these values using the non-linear regression ‘one-site total’ binding parameter in GraphPad Prism analysis software.
# [3] = test system: XBP1 splicing in INS-1 cells; assay: XBP1 splicing in ER-stressed INS-1 cells; assay type: cell-based, rat; conditions: INS-1 cells treated with brefeldin A or thapsigargin; FIG. 6
# Method: INS-1s (rat insulinoma beta cells) were grown in RPMI, 10% FBS buffer (v/v), 1 mM sodium pyruvate, 10 mM HEPES, 2 mM glutamine and 50 μM β-mercaptoethanol on Poly-D-Lysine coated tissue culture flasks. IRE1α (murine) was cloned into a pcDNA5/FRT/TO. INS-1 FRT/TO cells were grown following the protocol above. INS-1 FRT/TO cells were transfected with 2 μg IRE1α-pcDNA5/FRT/TO and 2 μg pOG44 using Lipofectamine 2000 (Thermo Fisher). Cell media was exchanged the next day and cells were allowed grow for another day before passaging. Selection was performed using 50 μg/mL Hygromycin-B (Thermo Fisher) over about two weeks until all un-transfected cells have died and colonies have appeared in transfected cells. Stably integrated cells were maintained in RPMI, 10% FBS buffer (v/v), 1 mM sodium pyruvate, 10 mM HEPES, 2 mM glutamine and 50 μM β-mercaptoethanol, […] Hygromycin-B. HEK293 cells were grown in DMEM High Glucose media (Gibco) supplemented with 10% FBS. […]
# INS-1 or isogenic IRE1α-overexpressing INS-1 cells were plated onto Poly-D-Lysine coated tissue culture plate and grown for 48 hrs. […] PCR fragments were then digested by PstI, resolved on 3% agarose gels, stained with EtBr and quantified by densitometry using ImageJ (NIH). For standard mRNA detection, generally […] total RNA was reverse transcribed using the QuantiTect Reverse Transcription Kit (QIAGEN). […]
# T1 sequence (O75460 547-977): as above
smiles,measurement,setting,value
"CCc1cc(-c2ccc(NS(=O)(=O)CCC(F)(F)F)nc2OC)cc2cnc(N[C@H]3CC[C@H](N)CC3)nc12 [LBC-0000406, N-(5-(2-(((1r,4r)-4-aminocyclohexyl)amino)-8-ethylquinazolin-6-yl)-6-methoxypyridin-2-yl)-3,3,3-trifluoropropane-1-sulfonamide]",IC50,IRE1α [1],7.4 nM
NC(=O)Nc1cc(-c2cccc(F)c2)sc1C(=O)N[C@H]1CCCNC1 [AZD7762],formation of RNase active dimers of IRE1α*,IRE1α [2],promotes the formation of the RNase active dimer
same,formation of the RNase active dimer of dpIRE1α*,dpIRE1α*; dpIRE1α*-ligand complex,promotes the formation of the RNase active dimer
same,fold lowering of Kdimer of dpIRE1α* when kinase domain complexed to ligand,dpIRE1α*,over 80 fold
Cc1ccc2c(NS(=O)(=O)c3ccccc3Cl)cccc2c1Oc1ncccc1-c1ccnc(N[C@H]2CCCNC2)n1 [KIRA8],formation of RNase active dimers of IRE1α*,IRE1α [2],unable to form RNase active dimers at any concentration tested
same,XBP1 splicing,[3],completely suppresses XBP1 splicing
"CCc1cc(-c2ccc(NS(=O)(=O)CC(F)(F)F)nc2OC)cc2cnc(N[C@H]3CC[C@H](N)CC3)nc12 [LBC-0000407, N-(5-(2-(((1r,4r)-4-aminocyclohexyl)amino)-8-ethylquinazolin-6-yl)-6-methoxypyridin-2-yl)-2,2,2-trifluoroethane-1-sulfonamide]",IC50,IRE1α [1],7.5 nM
CCc1cc(-c2ccc(NS(=O)(=O)c3ccccc3Cl)nc2OC)cc2cnc(N[C@H]3CC[C@H](N)CC3)nc12 [LBC-0000405],IC50,IRE1α [1],5.1 nM
"CCc1cc(-c2ccc(NS(=O)(=O)C3CC3)nc2OC)cc2cnc(N[C@H]3CC[C@H](N)CC3)nc12 [LBC-0000408, N-(5-(2-(((1r,4r)-4-aminocyclohexyl)amino)-8-ethylquinazolin-6-yl)-6-methoxypyridin-2-yl) cyclopropane sulfonamide]",IC50,IRE1α [1],5.1 nM
O=C(Nc1c[nH]nc1-c1nc2ccc(CN3CCOCC3)cc2[nH]1)NC1CC1 [AT9283],fold lowering of Kdimer of dpIRE1α* when kinase domain complexed to ligand,dpIRE1α*,over 80 fold
